Assay results as given in patent US10829473B2, “Modulators of the cystic fibrosis transmembrane conductance regulator protein and methods of use” (AbbVie Overseas S.Á.R.L., priority 2017, dated 2020).
Where two headings read alike, the source gives them in different places. Marks after values point to notes of the source that are not given here.

Biological target: T1, F508delCFTR (Homo sapiens, UniProt P13569, DEL508-508)
T1 construct: expressed in transfected cells; host or cells: CFBE41o- human lung derived epithelial cells (CFBE41o-F508delCFTR-HRP), doxycycline-inducible
T1 sequence (P13569 with tags, fused parts or gaps DEL508-508): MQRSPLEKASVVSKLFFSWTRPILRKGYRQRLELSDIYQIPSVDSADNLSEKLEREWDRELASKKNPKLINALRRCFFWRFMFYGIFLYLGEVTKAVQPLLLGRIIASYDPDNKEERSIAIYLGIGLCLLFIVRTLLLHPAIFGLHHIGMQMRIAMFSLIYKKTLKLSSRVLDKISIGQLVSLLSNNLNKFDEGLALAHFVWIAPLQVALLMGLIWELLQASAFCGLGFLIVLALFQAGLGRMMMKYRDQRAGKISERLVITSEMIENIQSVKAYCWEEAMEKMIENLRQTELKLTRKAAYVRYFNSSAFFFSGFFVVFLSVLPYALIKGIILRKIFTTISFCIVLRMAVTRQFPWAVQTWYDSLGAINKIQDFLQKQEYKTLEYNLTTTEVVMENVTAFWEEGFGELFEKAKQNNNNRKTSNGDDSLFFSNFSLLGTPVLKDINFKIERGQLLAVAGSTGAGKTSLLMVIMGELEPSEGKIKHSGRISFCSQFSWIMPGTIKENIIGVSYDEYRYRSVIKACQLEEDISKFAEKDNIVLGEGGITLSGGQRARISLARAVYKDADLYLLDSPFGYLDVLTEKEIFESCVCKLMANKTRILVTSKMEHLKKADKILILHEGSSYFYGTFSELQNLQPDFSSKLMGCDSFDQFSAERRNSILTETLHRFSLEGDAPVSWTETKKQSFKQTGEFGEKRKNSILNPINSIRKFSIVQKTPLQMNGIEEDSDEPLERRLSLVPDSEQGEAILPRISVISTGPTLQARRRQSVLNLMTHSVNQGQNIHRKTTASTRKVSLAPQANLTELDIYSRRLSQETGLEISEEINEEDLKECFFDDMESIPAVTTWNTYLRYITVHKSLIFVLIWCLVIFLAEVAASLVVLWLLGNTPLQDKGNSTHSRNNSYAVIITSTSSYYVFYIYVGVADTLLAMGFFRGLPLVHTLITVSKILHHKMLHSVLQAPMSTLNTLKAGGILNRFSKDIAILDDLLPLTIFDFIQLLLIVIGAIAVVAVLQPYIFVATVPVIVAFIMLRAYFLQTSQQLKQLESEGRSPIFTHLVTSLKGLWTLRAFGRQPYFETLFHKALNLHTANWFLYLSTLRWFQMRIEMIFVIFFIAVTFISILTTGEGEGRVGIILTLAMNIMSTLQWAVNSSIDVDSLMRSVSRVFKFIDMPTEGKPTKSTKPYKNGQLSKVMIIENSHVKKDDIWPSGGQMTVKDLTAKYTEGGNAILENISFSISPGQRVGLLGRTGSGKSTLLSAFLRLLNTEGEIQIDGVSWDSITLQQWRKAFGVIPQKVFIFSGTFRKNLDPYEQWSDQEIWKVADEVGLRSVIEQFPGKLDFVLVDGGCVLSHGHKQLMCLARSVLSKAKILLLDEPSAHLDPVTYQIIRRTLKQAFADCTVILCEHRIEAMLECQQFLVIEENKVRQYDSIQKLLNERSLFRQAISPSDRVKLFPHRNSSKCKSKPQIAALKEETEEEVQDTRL
Assay: Cell Surface Expression-Horse Radish Peroxidase (CSE-HRP) Assay
Format: cell-based
Conditions: for Maximum % activity (with co-corrector) / Emax: maximum at any tested concentration; for Emax: read-out: Maximum % activity (without co-corrector)
Experimental: A cellular assay for measuring the F508delCFTR cell surface expression after correction with test compounds either without or with a co-corrector (2 μM of 3-[(2R,4R)-4-({[1-(2,2-difluoro-1,3-benzodioxol-5-yl)cyclopropyl]carbonyl}amino)-7-methoxy-3,4-dihydro-2H-chromen-2-yl]benzoic acid), was developed in human lung derived epithelial cell line (CFBE4lo−) (Veit G et al, (2012) Mol Biol Cell. 23(21): 4188-4202). The development was achieved by expressing the F508delCFTR mutation along with a horseradish peroxidase (HRP) in the fourth exofacial loop, and then measuring the HRP activity using luminescence readout from these cells, CFBE410-F508delCFTR-HRP, that were incubated overnight with the test corrector compounds, either without or with the co-corrector. For this primary assay, the CFBE410-F508delCFTR-HRP cells were plated in 384-well plates (Greiner Bio-one; Cat 781080) at 4,000 cells/well along with 0.5 μg/mL doxycycline to induce the F508delCFTR-HRP expression and further incubated at 37° C., 5% CO2 for 68-72 hours. The test compounds were then added either without or with a co-corrector at the required concentrations and further incubated for 18-24 hours at 33° C. The highest concentration tested was 20 μM or 30 μM (GI-1 to GIII-36) with an 8-point concentration response curve using a 3-fold dilution in both the test compound without or with the co-corrector. Three replicate plates were run to determine one EC50. All plates contained negative controls (dimethyl sulfoxide, DMSO) and positive control (2 μM or 3 μM (GI-1 to GIII-36) of 3-[(2R,4R)-4-({[1-(2,2-difluoro-1,3-benzodioxol-5-yl)cyclopropyl]carbonyl}amino)-7-methoxy-3,4-dihydro-2H-chromen-2-yl]benzoic acid) as well as on-plate concentration response of the positive control. Post incubation, the plates were washed 5× times with Dulbecco's phosphate buffered saline (DPBS), followed by the addition of the HRP substrate, luminol (50 4), and measuring the HRP activity using luminescence readout on EnVision® Multilabel Plate Reader (Perkin Elmer; product number 2104-0010). The raw counts from the experiment were analyzed using Accelrys® Assay Explorer v3.3.
Z′ greater than 0.5 was used as passing quality control criteria for the plates.
The Z′ is defined as: 1−[3*SDPositve Control+3*SDNegative Control/Absolute(MeanPositive Control−MeanNegative Control)] wherein “SD” is standard deviation.
The % activity measured at each of the 8 test concentrations of the test compound added either without or with a co-corrector (2 μM or 3 μM (GI-1 to GIII-36) of 3-[(2R,4R)-4-({[1-(2,2-difluoro-1,3-benzodioxol-5-yl)cyclopropyl]carbonyl}amino)-7-methoxy-3,4-dihydro-2H-chromen-2-yl]benzoic acid) was normalized to the on-plate positive control using the following formulae: % activity (Test compound without co-corrector)=[(test compound without co-corrector response DMSO response)/(positive control response DMSO response)]*100 % activity (Test compound with co-corrector)=[(test compound with co-corrector response DMSO response)/(positive control response DMSO response)]*100
The maximum % activity achieved for the test compound either without or with a co-corrector at any tested concentration is presented in Table 6 along with the respective EC50's calculated using the following general sigmoidal curve with variable Hill slope equation (described as Model 42 in the Accelrys® Assay Explorer v3.3 software): y=(a−d)/(1+(x/c)b)+d
General sigmoidal curve with concentration, response, top, bottom, EC50 and Hill slope. This model describes a sigmoidal curve with an adjustable baseline, a. The equation can be used to fit curves where response is either increasing or decreasing with respect to the independent variable, “x”.
“x” is a concentration of drug under test.
“a” is the maximum response, and “d” is the minimum response
“c” is the inflection point (EGO for the curve. That is, “y” is halfway between the lower and upper asymptotes when x=c.
“b” is the slope-factor or Hill coefficient. […]

[1] = test compound alone, without co-corrector, read-out: EC50 (without co-corrector)
[2] = with co-corrector, read-out: EC50 (with co-corrector)
[3] = test compound with co-corrector
[4] = test compound with co-corrector, read-out: EC50 (with co-corrector)
[5] = test compound without co-corrector
[6] = test compound without co-corrector, read-out: EC50 (without co-corrector)

EC50 [1] [µM]	Maximum % activity (with co-corrector) (with co-corrector)	EC50 [2] [µM]	Emax (without co-corrector) [%]	Maximum % activity (with co-corrector) [3]	EC50 [4] [µM]	Emax [5] [%]	EC50 [6] [µM]	EC50 (with co-corrector) [3]	EC50 (without co-corrector) [5]	SMILES
> 10	++ (≥150 and <350)	> 10	< 50	–	–	–	–	–	–	O=C(NS(=O)(=O)c1ccccc1)C1(c2ccc(Cl)c(Cl)c2)CC1 [Example III-34, N-(benzenesulfonyl)-1-(3,4-dichlorophenyl)cyclopropane-1-carboxamide]
–	–	–	–	++ (≥150 and <350)	–	50 to 150	–	++^a	++^a	O=C(NS(=O)(=O)c1cccc2ccccc12)C1(c2ccc(C(F)(F)F)nc2Cl)CC1 [GIII-21]
3 to 10	++ (≥150 and <350)	3 to 10	< 50	–	–	–	–	–	–	O=C(NS(=O)(=O)c1cccc(C(F)(F)F)c1)C1(c2ccc(Cl)cc2Cl)CC1 [Example III-15, 1-(2,4-dichlorophenyl)-N-[3-(trifluoromethyl)benzene-1-sulfonyl]cyclopropane-1-carboxamide]
> 10	+ (<150)	> 10	< 50	–	–	–	–	–	–	O=C(NS(=O)(=O)Cc1ccccc1)C1(c2ccc(F)cc2)CC1 [Example III-112, 1-(4-fluorophenyl)-N-(phenylmethanesulfonyl)cyclopropane-1-carboxamide]
> 10	+ (<150)	> 10	< 50	–	–	–	–	–	–	O=C(OCc1ccccc1)N1CCC(S(=O)(=O)NC(=O)C2(c3ccc(Cl)c(Cl)c3)CC2)CC1 [Example III-70, benzyl 4-{[1-(3,4-dichlorophenyl)cyclopropane-1-carbonyl]sulfamoyl}piperidine-1-carboxylate]
3 to 10	+++ (≥350)	3 to 10	> 150	–	–	–	–	–	–	COc1cccc(-c2cnn(C)c2)c1C1(C(=O)NS(=O)(=O)c2cccc3ncccc23)CC1 [Example III-122, 1-[2-methoxy-6-(1-methyl-1H-pyrazol-4-yl)phenyl]-N-(quinoline-5-sulfonyl)cyclopropane-1-carboxamide]
> 10	+ (<150)	> 10	< 50	–	–	–	–	–	–	O=C(NS(=O)(=O)c1cccc(OC(F)(F)F)c1)C1(c2ccc(Cl)cc2Cl)CC1 [Example III-64, 1-(2,4-dichlorophenyl)-N-[3-(trifluoromethoxy)benzene-1-sulfonyl]cyclopropane-1-carboxamide]
–	–	–	–	++ (≥150 and <350)	–	50 to 150	–	++^a	++^a	COc1cc(C2(C(=O)NS(=O)(=O)c3cccc4ncccc34)CC2)c(OC(F)F)cn1 [GIII-19]

The remaining lines, values behind:

SMILES	EC50 [1] [µM]	Maximum % activity (with co-corrector) (with co-corrector)	EC50 [2] [µM]	Emax (without co-corrector) [%]	Maximum % activity (with co-corrector) [3]	EC50 [4] [µM]	Emax [5] [%]	EC50 [6] [µM]	EC50 (with co-corrector) [3]	EC50 (without co-corrector) [5]
CC(C)COc1ncc(C2CC2)cc1C1(C(=O)NS(=O)(=O)c2cccc3ncccc23)CC1 [Example GI-48, 1-[5-cyclopropyl-2-(2-methylpropoxy)pyridin-3-yl]-N-(quinoline-5-sulfonyl)cyclopropane-1-carboxamide]	–	–	–	–	+++ (≥350)	< 3	> 150	< 3	–	–
Cc1ccc(C2(C(=O)NS(=O)(=O)c3cccc4ncccc34)CC2)c(OC(C)C)n1 [Example GI-80, 1-{6-methyl-2-[(propan-2-yl)oxy]pyridin-3-yl}-N-(quinoline-5-sulfonyl)cyclopropane-1-carboxamide]	–	–	–	–	+++ (≥350)	< 3	> 150	< 3	–	–
COC[C@H](C)Oc1ccc(C)cc1C1(C(=O)NS(=O)(=O)c2cccc3ncccc23)CC1 [II-92]	< 3	+++ (≥350)	< 3	> 150	–	–	–	–	–	–
Cc1ccc(C)c(C2(C(=O)NS(=O)(=O)c3cccc4[nH]ccc34)CC2)c1 [II-80]	3 to 10	+++ (≥350)	< 3	> 150	–	–	–	–	–	–
Cc1cnc(N2CCCC2)c(C2(C(=O)NS(=O)(=O)c3cccc4nc(C)ccc34)CC2)c1 [GII-36, 1-[5-methyl-2-(pyrrolidin-1-yl)pyridin-3-yl]-N-(2-methylquinoline-5-sulfonyl)cyclopropane-1-carboxamide]	–	–	–	–	+++ (≥350)	3 to 10	50 to 150	3 to 10	–	–
COc1cccc(C(C)C)c1C1(C(=O)NS(=O)(=O)c2cccc3ncccc23)CC1 [Example I-50, 1-[2-methoxy-6-(propan-2-yl)phenyl]-N-(quinoline-5-sulfonyl)cyclopropane-1-carboxamide]	< 3	+++ (≥350)	< 3	> 150	–	–	–	–	–	–
COc1ccc(C(C)OC)cc1C1(C(=O)NS(=O)(=O)c2cccc3ncccc23)CC1 (stereo not drawn) [II-87]	3 to 10	+++ (≥350)	< 3	> 150	–	–	–	–	–	–
COc1ccc(C2CCC2)cc1C1(C(=O)NS(=O)(=O)c2cccc3nc(C)ccc23)CCC1 [Example I-33, 1-(5-cyclobutyl-2-methoxyphenyl)-N-(2-methylquinoline-5-sulfonyl)cyclobutane-1-carboxamide]	3 to 10	+++ (≥350)	< 3	> 150	–	–	–	–	–	–
CCOC(C)(C)c1ccc(OC(F)F)c(C2(C(=O)NS(=O)(=O)c3cccc4nc(C)ccc34)CC2)c1 [II-107]	< 3	+++ (≥350)	< 3	> 150	–	–	–	–	–	–
O=C(NS(=O)(=O)c1cccc2ncccc12)C1(c2ccc(C(F)(F)F)nc2C2CCC2)CC1 [GII-14, 1-[2-cyclobutyl-6-(trifluoromethyl)pyridin-3-yl]-N-(quinoline-5-sulfonyl)cyclopropane-1-carboxamide]	–	–	–	–	+++ (≥350)	3 to 10	> 150	3 to 10	–	–
COc1cc(C2(C(=O)NS(=O)(=O)c3cccc4nc(C)ccc34)CC2)c(OCC(C)C)cn1 [Example GI-20, 1-[2-methoxy-5-(2-methylpropoxy)pyridin-4-yl]-N-(2-methylquinoline-5-sulfonyl)cyclopropane-1-carboxamide]	< 3	+++ (≥350)	< 3	> 150	–	–	–	–	–	–
COc1cc(OC(C)C)c(C2(C(=O)NS(=O)(=O)c3cccc4c3CCCN4)CC2)cn1 [GII-24, 1-{6-methoxy-4-[(propan-2-yl)oxy]pyridin-3-yl}-N-(1,2,3,4-tetrahydroquinoline-5-sulfonyl)cyclopropane-1-carboxamide]	–	–	–	–	++ (≥150 and <350)	3 to 10	50 to 150	–	–	++^a
CC(C)Oc1cnc(OC(C)C)c(C2(C(=O)NS(=O)(=O)c3cccc4ncccc34)CC2)c1 [Example GI-65, 1-{2,5-bis[(propan-2-yl)oxy]pyridin-3-yl}-N-(quinoline-5-sulfonyl)cyclopropane-1-carboxamide]	–	–	–	–	+++ (≥350)	< 3	> 150	< 3	–	–
